Source: US10509041B2, “Glucose derivative, and cell imaging method and imaging agent using said derivative” (HIROSAKI UNIVERSITY, priority 2014, dated 2019)
Several values for one entry are separate records, joined by “and”; a condition that tells them apart may be missing. Equal entries are not always repeated.

What was measured:
[1] = system: mouse insulinoma cells (MIN6); assay: Increase in fluorescence intensity (uptake) after administration of fluorescent glucose derivative to MIN6 cells, influence of cytochalasin B (CB) or phloretin (PHT), fluorescence microplate reader; type: cell-based; details: 2-NBDG 200 μM, 5 minutes; CB 10 μM; MIN6 13 days of culture; average, two independent experiments
Procedure: Increase in fluorescence intensity caused by the administration of CDG, and the influence of a glucose transporter (GLUT) inhibitor CB thereon were confirmed by targeting MIN6 cells.
A 96-well clear-bottom plate having wells of 8 rows (A to H) and 12 columns (1 to 12) (μClear-PLATE, Greiner Bio-One, BLACK) was used in measurement. A culture solution containing MIN6 cells suspended at a density of 60×10^4 cells/mL was added dropwise at 10 μL/well to the central portion of the well, and then, the plate was left standing for 40 minutes in an incubator for fixation. The cells were cultured by the addition of a culture solution at 200 μL/well (6000 cells/well). For layout, the cells were seeded to wells B to H on the third column and wells A to G on the fifth column. Medium replacement was performed by replacing half the amount with a fresh one once every two days at 0 to 4 DIV (days in vitro) and every day at 5 DIV or later. […]
CDG and 2-NBDG were each independently administered to the wells on the third and fifth columns using an 8-channel pipette such that these derivatives were alternately placed on the same plate. Before the administration, the autofluorescence of each well was measured in advance using a fluorescence microplate reader (Flex Station, Molecular Devices, LLC). […] The measurement was conducted at Bottom Read, Averaging 3, and Photomultiplier sensitivity high. […]

[2] = system: mouse insulinoma cells (MIN6); assay: as above; type: cell-based; details: 2-NBDG 200 μM, 5 minutes; PHT 150 μM; MIN6 13 days of culture; average, two independent experiments

Question: Which results are given for `O=[N+]([O-])c1ccc(N[C@H]2C(O)O[C@H](CO)[C@@H](O)[C@@H]2O)c2nonc12` (stereo partly drawn) [Compound 2-NBDG, 2-[N-(7-nitrobenz-2-oxa-1,3-diazol-4-yl)amino]-2-deoxy-D-glucose, reference compound]?
Answer: fluorescence intensity in the presence of CB relative to the absence of CB [1]: 30.8% and 36.4%; fluorescence intensity in the presence of PHT relative to the absence of PHT [2]: 18.6% and 15.7%
